Data published in PMC7101356, “Cross-site and cross-platform variability of automated patch clamp assessments of drug effects on human cardiac currents in recombinant cells” (Scientific Reports, 2020).
pIC50: −log10 of the molar value.

How the values were obtained:
[1] = target: hCav1.2 (Homo sapiens, UniProt Q13936); test: Automated patch clamp, hCav1.2 current block
Protocol: Peak current was measured during the step to 0 mV. Leak current was measured after applying a saturating concentration of a blocker such as cadmium (200 µM) at the end of each experiment to completely block hCav1.2 current.
Concentration-response relationships for each test article were independently investigated, i.e., each cell received only one test article, typically evaluating multiple concentrations in a cumulative fashion (lowest to highest concentrations). However, some platforms tested only one concentration per well. Each concentration response was based on a minimum of four concentrations, with a minimum of three wells used for each concentration. In cases of high variability, more cells per concentration were recorded. Prior to drug addition, cells received an addition of vehicle to measure non-test article-related effects such as addition artifacts. At the end of the experiment, a supramaximal concentration of a known inhibitory reference compound was applied to assess leak current and appropriate responsiveness of the test system. While it was recommended that a separate group of cells (n ≥ 3) be recorded for each experimental day to determine the baseline response to vehicle and to address day-to-day variability, this was not verified.
These criteria were applied to all APC platforms.
(§1) The steady state current at each concentration was used to determine the concentration-response relationships. Mean concentration-response data were fitted to a standard sigmoidal four-parameter logistic equation (GraphPad Prism 7; GraphPad Inc., La Jolla, CA) of the form: Y=Bottom+(Top−Bottom)/(1+10^∧(LogIC50−X)∗HillSlope) where Y is the current inhibition (in % of pre-drug control), X is the logarithm of drug concentration, and IC50 is the drug concentration producing half-maximal current inhibition. Curve fitting was performed using the following constraints: Top = 100%, Bottom = 0%, Hill Slope <2. No curve fitting was performed in cases with an obvious lack of a concentration-dependent current inhibition and/or small effect size (approximately ≤20%).

[2] = target: T1, hERG (Homo sapiens, UniProt Q12809); test: Automated patch clamp, hERG current block (consensus step-ramp protocol); settings: for hERG K+ current inhibition, Mean, at maximal concentration: max conc [mol/L]: bep 3.00E-07, cpz 3.00E-06, cis 3.00E-07, dil 1.00E-04, dof 1.00E-07, mex 1.00E-04, ond 1.00E-05, qui 1.00E-05, ran 1.00E-04, sot 3.00E-04, ter 3.00E-07, ver 1.00E-06; for hERG K+ current inhibition, Mean, at minimal concentration: min conc [mol/L]: bep 1.00E-08, cpz 1.00E-07, cis 1.00E-09, dil 3.00E-06, dof 1.00E-09, mex 1.00E-06, ond 3.00E-07, qui 1.00E-07, ran 3.00E-06, sot 1.00E-05, ter 1.00E-08, ver 3.00E-08
[3] = target: T1, hERG; test: Automated patch clamp, hERG current block, Milnes protocol (site s06); type: cell-based; parameters: expressed in transfected cells; host or cells: HEK293 or CHO, depending on site (site s06, Milnes protocol: HEK293); settings: s06_p4, HEK293, 22–24 °C
Description: Thus, a single test site (s06) elicited hERG current with a 10-s depolarizing voltage step from −80 mV to 0 mV every 25 s (Milnes protocol, see Milnes et al.[14]).
as §1
This protocol consists of a set of two 25-s-long pulse protocols, with one protocol (“Pulse”) containing a prolonged 10-s-long depolarizing test pulse (0 mV) followed by a 14-s-long return pulse to −80 mV, and a second protocol “No-Pulse” consisting of the same pulse structure without the depolarizing test pulse[18].

[4] = s03_p2, HEK293, room temperature
[5] = s16_p3, HEK293, room temperature

T1 sequence (Q12809 whole entry): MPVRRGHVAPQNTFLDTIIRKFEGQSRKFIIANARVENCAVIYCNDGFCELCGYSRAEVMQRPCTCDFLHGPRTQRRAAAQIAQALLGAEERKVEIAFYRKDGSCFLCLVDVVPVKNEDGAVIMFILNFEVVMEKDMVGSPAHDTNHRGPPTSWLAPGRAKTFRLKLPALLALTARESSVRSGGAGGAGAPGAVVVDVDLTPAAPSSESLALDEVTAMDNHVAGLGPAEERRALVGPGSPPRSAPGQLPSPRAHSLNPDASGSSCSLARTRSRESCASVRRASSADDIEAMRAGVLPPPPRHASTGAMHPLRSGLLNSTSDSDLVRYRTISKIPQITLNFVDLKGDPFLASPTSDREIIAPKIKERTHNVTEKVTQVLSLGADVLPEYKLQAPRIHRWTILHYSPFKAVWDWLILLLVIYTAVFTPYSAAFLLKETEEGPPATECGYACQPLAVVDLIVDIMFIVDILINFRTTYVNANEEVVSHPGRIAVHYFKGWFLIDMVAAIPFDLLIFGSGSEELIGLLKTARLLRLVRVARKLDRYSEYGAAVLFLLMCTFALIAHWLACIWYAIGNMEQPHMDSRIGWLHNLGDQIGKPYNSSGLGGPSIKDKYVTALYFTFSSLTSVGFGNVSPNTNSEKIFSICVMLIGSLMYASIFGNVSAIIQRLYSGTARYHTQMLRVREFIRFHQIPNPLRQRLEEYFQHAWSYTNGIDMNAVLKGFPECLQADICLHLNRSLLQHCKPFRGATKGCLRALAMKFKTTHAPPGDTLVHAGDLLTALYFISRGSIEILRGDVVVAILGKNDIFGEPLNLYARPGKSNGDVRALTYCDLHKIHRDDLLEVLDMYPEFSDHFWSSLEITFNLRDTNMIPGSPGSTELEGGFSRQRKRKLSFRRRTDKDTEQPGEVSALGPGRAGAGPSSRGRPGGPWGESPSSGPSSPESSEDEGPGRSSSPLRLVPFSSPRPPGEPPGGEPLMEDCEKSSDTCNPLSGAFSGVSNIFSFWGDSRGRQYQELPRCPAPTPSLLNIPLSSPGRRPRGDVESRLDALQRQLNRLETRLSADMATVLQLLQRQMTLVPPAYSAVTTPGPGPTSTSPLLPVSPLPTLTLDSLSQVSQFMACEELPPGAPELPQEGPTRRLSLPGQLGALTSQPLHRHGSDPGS
hCav1.2, sequence (Q13936 whole entry): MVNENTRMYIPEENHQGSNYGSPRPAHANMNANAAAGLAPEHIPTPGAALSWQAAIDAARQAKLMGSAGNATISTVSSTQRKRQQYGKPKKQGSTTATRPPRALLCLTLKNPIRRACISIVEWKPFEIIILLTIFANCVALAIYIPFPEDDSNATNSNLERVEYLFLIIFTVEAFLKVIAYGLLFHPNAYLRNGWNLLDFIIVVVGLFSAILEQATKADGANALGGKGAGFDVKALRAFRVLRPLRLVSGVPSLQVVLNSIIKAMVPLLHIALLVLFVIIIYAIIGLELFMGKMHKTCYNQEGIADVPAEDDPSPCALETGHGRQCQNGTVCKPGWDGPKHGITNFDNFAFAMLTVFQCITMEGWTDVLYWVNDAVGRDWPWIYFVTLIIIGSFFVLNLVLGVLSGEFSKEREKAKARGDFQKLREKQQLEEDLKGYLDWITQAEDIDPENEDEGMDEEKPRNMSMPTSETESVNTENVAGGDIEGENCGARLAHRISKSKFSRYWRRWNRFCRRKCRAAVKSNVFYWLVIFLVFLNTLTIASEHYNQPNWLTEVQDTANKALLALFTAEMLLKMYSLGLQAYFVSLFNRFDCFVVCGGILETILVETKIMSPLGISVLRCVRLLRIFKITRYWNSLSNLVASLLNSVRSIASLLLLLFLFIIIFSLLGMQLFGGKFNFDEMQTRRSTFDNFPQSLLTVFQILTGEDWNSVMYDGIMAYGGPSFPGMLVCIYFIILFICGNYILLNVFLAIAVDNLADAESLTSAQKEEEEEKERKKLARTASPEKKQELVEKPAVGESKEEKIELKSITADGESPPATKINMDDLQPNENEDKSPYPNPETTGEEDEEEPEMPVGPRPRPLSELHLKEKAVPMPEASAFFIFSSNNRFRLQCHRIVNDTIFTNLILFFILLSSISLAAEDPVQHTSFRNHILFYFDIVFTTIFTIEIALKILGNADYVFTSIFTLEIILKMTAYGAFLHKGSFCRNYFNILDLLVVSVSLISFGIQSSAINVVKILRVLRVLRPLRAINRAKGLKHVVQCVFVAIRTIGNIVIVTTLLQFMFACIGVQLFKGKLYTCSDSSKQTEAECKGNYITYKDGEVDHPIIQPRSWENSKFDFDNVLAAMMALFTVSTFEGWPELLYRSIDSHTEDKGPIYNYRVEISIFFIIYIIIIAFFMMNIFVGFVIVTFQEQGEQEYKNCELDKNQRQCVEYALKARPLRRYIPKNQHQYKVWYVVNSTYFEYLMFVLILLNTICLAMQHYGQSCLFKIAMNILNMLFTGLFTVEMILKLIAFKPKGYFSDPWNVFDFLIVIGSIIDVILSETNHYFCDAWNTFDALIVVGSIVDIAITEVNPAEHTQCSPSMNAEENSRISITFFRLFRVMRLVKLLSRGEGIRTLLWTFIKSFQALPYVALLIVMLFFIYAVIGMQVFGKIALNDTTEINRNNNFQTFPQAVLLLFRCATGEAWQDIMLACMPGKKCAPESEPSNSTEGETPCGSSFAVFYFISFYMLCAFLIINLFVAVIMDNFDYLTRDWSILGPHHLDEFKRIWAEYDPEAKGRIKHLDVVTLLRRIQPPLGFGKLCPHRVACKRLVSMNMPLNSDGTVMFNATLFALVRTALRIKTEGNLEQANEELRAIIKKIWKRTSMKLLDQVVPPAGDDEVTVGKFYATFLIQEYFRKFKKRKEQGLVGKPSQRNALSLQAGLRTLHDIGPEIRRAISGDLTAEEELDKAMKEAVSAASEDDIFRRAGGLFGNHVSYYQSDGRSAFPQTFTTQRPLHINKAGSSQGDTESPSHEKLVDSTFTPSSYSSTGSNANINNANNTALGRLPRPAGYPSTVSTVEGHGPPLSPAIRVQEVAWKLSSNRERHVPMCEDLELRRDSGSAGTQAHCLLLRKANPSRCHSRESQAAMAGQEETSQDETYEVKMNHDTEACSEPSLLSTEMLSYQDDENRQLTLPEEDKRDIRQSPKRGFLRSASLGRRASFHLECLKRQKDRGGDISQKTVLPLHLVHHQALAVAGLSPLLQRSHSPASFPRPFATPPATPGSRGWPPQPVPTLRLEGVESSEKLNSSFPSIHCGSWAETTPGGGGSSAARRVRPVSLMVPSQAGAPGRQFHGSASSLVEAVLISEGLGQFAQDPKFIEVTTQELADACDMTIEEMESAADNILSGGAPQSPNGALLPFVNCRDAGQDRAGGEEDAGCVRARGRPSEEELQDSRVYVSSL
hCav1.2, sequence (Q08289 whole entry partner): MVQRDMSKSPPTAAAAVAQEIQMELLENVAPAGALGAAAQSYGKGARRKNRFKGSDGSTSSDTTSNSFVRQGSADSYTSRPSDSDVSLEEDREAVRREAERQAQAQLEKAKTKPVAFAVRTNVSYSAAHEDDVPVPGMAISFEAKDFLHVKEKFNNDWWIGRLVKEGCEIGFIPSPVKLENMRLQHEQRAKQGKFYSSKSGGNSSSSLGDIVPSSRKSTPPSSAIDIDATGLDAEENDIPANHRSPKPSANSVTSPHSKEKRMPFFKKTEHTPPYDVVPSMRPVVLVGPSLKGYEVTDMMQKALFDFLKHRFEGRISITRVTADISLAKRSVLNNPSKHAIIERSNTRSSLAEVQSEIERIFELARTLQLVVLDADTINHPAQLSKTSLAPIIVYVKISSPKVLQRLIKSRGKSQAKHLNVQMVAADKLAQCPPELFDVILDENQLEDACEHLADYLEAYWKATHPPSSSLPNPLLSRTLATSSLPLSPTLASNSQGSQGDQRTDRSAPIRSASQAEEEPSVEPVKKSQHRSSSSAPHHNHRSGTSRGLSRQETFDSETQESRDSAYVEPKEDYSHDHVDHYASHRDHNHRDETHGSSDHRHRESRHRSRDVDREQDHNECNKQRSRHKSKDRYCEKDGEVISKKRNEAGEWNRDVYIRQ
hCav1.2, sequence (P54289 25-956 partner limits assumed): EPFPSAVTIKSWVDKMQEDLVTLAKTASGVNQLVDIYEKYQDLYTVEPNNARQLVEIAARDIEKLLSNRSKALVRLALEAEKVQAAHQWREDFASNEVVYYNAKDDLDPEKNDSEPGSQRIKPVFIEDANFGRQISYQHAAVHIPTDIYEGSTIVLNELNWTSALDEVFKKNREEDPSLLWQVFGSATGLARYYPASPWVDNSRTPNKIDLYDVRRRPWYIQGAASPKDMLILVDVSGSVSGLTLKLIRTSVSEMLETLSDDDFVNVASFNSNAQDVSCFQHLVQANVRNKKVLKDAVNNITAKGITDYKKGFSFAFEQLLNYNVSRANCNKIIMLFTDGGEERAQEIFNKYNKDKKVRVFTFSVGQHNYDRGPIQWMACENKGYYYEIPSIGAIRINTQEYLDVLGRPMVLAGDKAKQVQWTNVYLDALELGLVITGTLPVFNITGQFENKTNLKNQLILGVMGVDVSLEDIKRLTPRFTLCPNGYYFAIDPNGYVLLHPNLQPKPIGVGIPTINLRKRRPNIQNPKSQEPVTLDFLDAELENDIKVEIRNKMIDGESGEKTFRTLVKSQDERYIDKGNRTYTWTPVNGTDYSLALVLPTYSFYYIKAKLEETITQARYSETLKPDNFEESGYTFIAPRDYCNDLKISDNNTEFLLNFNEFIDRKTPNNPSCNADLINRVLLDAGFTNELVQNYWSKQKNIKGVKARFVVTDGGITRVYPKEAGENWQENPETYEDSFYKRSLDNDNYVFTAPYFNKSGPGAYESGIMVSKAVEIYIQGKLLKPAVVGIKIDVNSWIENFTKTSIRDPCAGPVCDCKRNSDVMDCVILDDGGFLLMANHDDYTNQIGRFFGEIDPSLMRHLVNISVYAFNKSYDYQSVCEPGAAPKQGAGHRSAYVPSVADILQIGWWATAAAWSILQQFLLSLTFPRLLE
hCav1.2, sequence (P54289 957-1103 partner limits assumed): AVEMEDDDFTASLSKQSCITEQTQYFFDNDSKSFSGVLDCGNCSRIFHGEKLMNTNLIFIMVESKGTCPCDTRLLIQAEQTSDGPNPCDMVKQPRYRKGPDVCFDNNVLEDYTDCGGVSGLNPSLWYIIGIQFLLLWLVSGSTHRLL

Cc1cccc(C)c1OCC(C)N (stereo not shown) [mex, mexiletine]
log IC50, half-maximal inhibitory concentration ([1]; site s11_p1): no inh.
Peak hCav1.2 Ca2+ current inhibition, Mean ([1]; site s11_p1, 1.00E-04 mol/L): 22.9%
Peak hCav1.2 Ca2+ current inhibition, Mean ([1]; site s11_p1, 1.00E-06 mol/L): 12.9%
nH, Hill slope ([1]; site s14_p1): 2.00
Peak hCav1.2 Ca2+ current inhibition, Mean ([1]; site s14_p1, 1.00E-04 mol/L): 16.2%
Peak hCav1.2 Ca2+ current inhibition, Mean ([1]; site s14_p1, 1.00E-06 mol/L): -17.7%
nH, Hill slope ([1]; site s16_p3): 0.80
Peak hCav1.2 Ca2+ current inhibition, Mean ([1]; site s16_p3, 1.00E-04 mol/L): 31.7%
Peak hCav1.2 Ca2+ current inhibition, Mean ([1]; site s16_p3, 1.00E-06 mol/L): -0.3%
nH, Hill slope ([1]; site s18_p1): 1.07
Peak hCav1.2 Ca2+ current inhibition, Mean ([1]; site s18_p1, 1.00E-04 mol/L): 35.7%
Peak hCav1.2 Ca2+ current inhibition, Mean ([1]; site s18_p1, 1.00E-06 mol/L): 2.3%
pIC50 ([2]; hERG K+ current log IC50, s01_p1, CHO, 23 °C): 3.86
pIC50 ([2]; hERG K+ current log IC50, s02_p2, HEK293, 22–26 °C): 3.96
pIC50 ([2]; hERG K+ current log IC50, s03_p2, HEK293, room temperature): 4.69
pIC50 ([2]; hERG K+ current log IC50, s04_p3, CHO, room temperature): 4.32
pIC50 ([2]; hERG K+ current log IC50, s15_p1, HEK293, 22–23 °C): 4.62
pIC50 ([2]; hERG K+ current log IC50, s16_p3, HEK293, room temperature): 4.07
inhibition at 0.0001 mol/L ([2]; human, hERG K+ current inhibition, Mean, site_platform s07_p5, 1.00E-04 mol/L): 65%
inhibition at 1e-06 mol/L ([2]; human, hERG K+ current inhibition, Mean, site_platform s07_p5, 1.00E-06 mol/L): -10.5%
inhibition at 4 min, 0.0001 mol/L ([2]; human, hERG K+ current inhibition, Mean, site_platform s10_p3, 1.00E-04 mol/L): 42%
inhibition at 4 min, 1e-06 mol/L ([2]; human, hERG K+ current inhibition, Mean, site_platform s10_p3, 1.00E-06 mol/L): -3.5%
inhibition at 7 min, 0.0001 mol/L ([2]; human, hERG K+ current inhibition, Mean, site_platform s11_p1, 1.00E-04 mol/L): 73.7%
inhibition at 0.0001 mol/L ([2]; human, hERG K+ current inhibition, Mean, site_platform s12_p2, 1.00E-04 mol/L): 56.6%
inhibition at 1e-06 mol/L ([2]; human, hERG K+ current inhibition, Mean, site_platform s12_p2, 1.00E-06 mol/L): 0.2%
inhibition at 0.0001 mol/L ([2]; human, hERG K+ current inhibition, Mean, site_platform s13_p2, 1.00E-04 mol/L): 78.6%
inhibition at 1e-06 mol/L ([2]; human, hERG K+ current inhibition, Mean, site_platform s13_p2, 1.00E-06 mol/L): 7.7%
inhibition at 7 min, 0.0001 mol/L ([2]; human, hERG K+ current inhibition, Mean, site_platform s14_p1, 1.00E-04 mol/L): 60.2%
inhibition at 7 min, 1e-06 mol/L ([2]; human, hERG K+ current inhibition, Mean, site_platform s14_p1, 1.00E-06 mol/L): 10.8%
inhibition at 7 min, 1e-06 mol/L ([2]; human, recombinant cells expressing hERG, hERG K+ current inhibition, Mean, site_platform s11_p1, 1.00E-06 mol/L): 29.4%
pIC50 ([2]; log IC50, hERG K+ current inhibition, site_platform s07_p5): 4.14
pIC50 ([2]; log IC50, hERG K+ current inhibition, site_platform s10_p3): 3.90
pIC50 ([2]; log IC50, hERG K+ current inhibition, site_platform s11_p1): 4.80
pIC50 ([2]; log IC50, hERG K+ current inhibition, site_platform s12_p2): 4.11
pIC50 ([2]; log IC50, hERG K+ current inhibition, site_platform s13_p2): 4.46
pIC50 ([2]; log IC50, hERG K+ current inhibition, site_platform s14_p1): 4.20
hERG K+ current nH, Hill slope ([2]; s01_p1, CHO, 23 °C): 0.78
hERG K+ current inhibition, Mean, at maximal concentration ([2]; s01_p1, CHO, 23 °C): 46.1%
hERG K+ current inhibition, Mean, at minimal concentration ([2]; s01_p1, CHO, 23 °C): 0.7%
hERG K+ current nH, Hill slope ([2]; s02_p2, HEK293, 22–26 °C): 0.95
hERG K+ current inhibition, Mean, at maximal concentration ([2]; s02_p2, HEK293, 22–26 °C): 48.2%
hERG K+ current inhibition, Mean, at minimal concentration ([2]; s02_p2, HEK293, 22–26 °C): 1.0%
hERG K+ current nH, Hill slope [2, 4]: 0.95
hERG K+ current inhibition, Mean, at maximal concentration [2, 4]: 86.8%
hERG K+ current inhibition, Mean, at minimal concentration [2, 4]: 14.6%
hERG K+ current nH, Hill slope ([2]; s04_p3, CHO, room temperature): 0.81
hERG K+ current inhibition, Mean, at maximal concentration ([2]; s04_p3, CHO, room temperature): 67.4%
hERG K+ current inhibition, Mean, at minimal concentration ([2]; s04_p3, CHO, room temperature): 9.7%
hERG K+ current log IC50 ([2]; s05_p4, HEK293, 22–24 °C): -4.37 log mol/L
hERG K+ current nH, Hill slope ([2]; s05_p4, HEK293, 22–24 °C): 1.45
hERG K+ current inhibition, Mean, at maximal concentration ([2]; s05_p4, HEK293, 22–24 °C): 75.7%
hERG K+ current nH, Hill slope ([2]; s15_p1, HEK293, 22–23 °C): 0.72
hERG K+ current inhibition, Mean, at maximal concentration ([2]; s15_p1, HEK293, 22–23 °C): 74.6%
hERG K+ current inhibition, Mean, at minimal concentration ([2]; s15_p1, HEK293, 22–23 °C): 10.3%
hERG K+ current nH, Hill slope [2, 5]: 0.76
hERG K+ current inhibition, Mean, at maximal concentration [2, 5]: 52.6%
hERG K+ current inhibition, Mean, at minimal concentration [2, 5]: 3.9%
hERG K+ current nH, Hill slope ([2]; s18_p1, CHO, 35 °C): 1.12
hERG K+ current inhibition, Mean, at maximal concentration ([2]; s18_p1, CHO, 35 °C): 70.4%
hERG K+ current inhibition, Mean, at minimal concentration ([2]; s18_p1, CHO, 35 °C): -1.2%
hERG K+ current nH, Hill slope ([2]; s19_p3, CHO, room temperature): 0.84
hERG K+ current inhibition, Mean, at maximal concentration ([2]; s19_p3, CHO, room temperature): 58.4%
hERG K+ current inhibition, Mean, at minimal concentration ([2]; s19_p3, CHO, room temperature): 4.2%
nH (Hill slope), hERG K+ current inhibition ([2]; site_platform s07_p5): 1.95
nH (Hill slope), hERG K+ current inhibition ([2]; site_platform s10_p3): 1.32
nH (Hill slope), hERG K+ current inhibition ([2]; site_platform s11_p1): 0.41
nH (Hill slope), hERG K+ current inhibition ([2]; site_platform s12_p2): 1.12
nH (Hill slope), hERG K+ current inhibition ([2]; site_platform s13_p2): 1.01
nH (Hill slope), hERG K+ current inhibition ([2]; site_platform s14_p1): 0.63
hERG K+ current nH, Hill slope [3]: 1.02
hERG K+ current inhibition, Mean, at maximal concentration ([3]; max conc [mol/L]: bep 3.00E-07, cpz 3.00E-06, cis 3.00E-07, dil 1.00E-04, dof 1.00E-07, mex 1.00E-04, ond 1.00E-05, qui 1.00E-05, ran 1.00E-04, sot 3.00E-04, ter 3.00E-07, ver 1.00E-06): 71.6%
hERG K+ current inhibition, Mean, at minimal concentration ([3]; min conc [mol/L]: bep 1.00E-08, cpz 1.00E-07, cis 1.00E-09, dil 3.00E-06, dof 1.00E-09, mex 1.00E-06, ond 3.00E-07, qui 1.00E-07, ran 3.00E-06, sot 1.00E-05, ter 1.00E-08, ver 3.00E-08): -3.4%
IC50 ([3]; read-out: hERG K+ current log IC50 (converted)): 37.2 µM
